Experimental data taken from the NIST ThermoML archive (doi:10.1021/je100734t).
Numbers after ± are expanded uncertainties.

Experiment: xn = mol fraction of the nth substance listed
Conditions: 101 kPa, Liquid; for speed of sound: Pulse-echo method

CCCCCCCCCO [nonan-1-ol] + Cc1ccccc1C
Conditions | mass density, 293.15 K [kg/m3] | mass density, 303.15 K [kg/m3] | mass density, 313.15 K [kg/m3] | speed of sound, 293.15 K [m/s] | speed of sound, 303.15 K [m/s] | speed of sound, 313.15 K [m/s]
x2 = 0 | 827.7 ± 0.43 | 820.82 ± 0.44 | 813.88 ± 0.45 | 1381 ± 2 | 1347 ± 2 | 1314 ± 2
x2 = 0.0653 | 830.13 ± 0.42 | 823.15 ± 0.44 | 816.1 ± 0.45 | 1380 ± 2 | 1345 ± 2 | 1312 ± 2
x2 = 0.136 | 832.82 ± 0.42 | 825.73 ± 0.43 | 818.58 ± 0.44 | 1378 ± 2 | 1343 ± 2 | 1309 ± 2
x2 = 0.1773 | 834.44 ± 0.42 | 827.29 ± 0.43 | 820.07 ± 0.44 | 1377 ± 2 | 1341 ± 2 | 1307 ± 2
x2 = 0.2281 | 836.48 ± 0.42 | 829.25 ± 0.43 | 821.95 ± 0.44 | 1375 ± 2 | 1339 ± 2 | 1304 ± 2
x2 = 0.2834 | 838.77 ± 0.41 | 831.45 ± 0.42 | 824.06 ± 0.43 | 1373 ± 2 | 1336 ± 2 | 1301 ± 2
x2 = 0.3463 | 841.46 ± 0.41 | 834.04 ± 0.42 | 826.55 ± 0.43 | 1370 ± 2 | 1334 ± 2 | 1298 ± 2
x2 = 0.4203 | 844.78 ± 0.4 | 837.24 ± 0.41 | 829.63 ± 0.43 | 1368 ± 2 | 1330 ± 2 | 1295 ± 2
x2 = 0.4761 | 847.41 ± 0.4 | 839.78 ± 0.41 | 832.07 ± 0.42 | 1366 ± 2 | 1328 ± 2 | 1292 ± 2
x2 = 0.5478 | 850.96 ± 0.39 | 843.21 ± 0.41 | 835.38 ± 0.42 | 1364 ± 2 | 1326 ± 2 | 1289 ± 2
x2 = 0.6327 | 855.43 ± 0.39 | 847.54 ± 0.4 | 839.57 ± 0.41 | 1362 ± 2 | 1323 ± 2 | 1286 ± 2
x2 = 0.7121 | 859.93 ± 0.38 | 851.92 ± 0.39 | 843.83 ± 0.41 | 1361 ± 2 | 1322 ± 2 | 1285 ± 2
x2 = 0.7974 | 865.14 ± 0.37 | 856.99 ± 0.39 | 848.77 ± 0.4 | 1361 ± 2 | 1322 ± 2 | 1284 ± 2
x2 = 0.8695 | 869.88 ± 0.37 | 861.63 ± 0.38 | 853.31 ± 0.39 | 1363 ± 2 | 1322 ± 2 | 1284 ± 2
x2 = 0.9287 | 874.08 ± 0.36 | 865.73 ± 0.37 | 857.34 ± 0.39 | 1365 ± 2 | 1324 ± 2 | 1285 ± 2
